Measurements from patent US10780090B2, “Heteroaryl compounds useful as inhibitors of SUMO activating enzyme” (Millennium Pharmaceuticals, Inc., priority 2014, dated 2020).

Biological target: recombinant human SAE enzyme (Homo sapiens (Human), UniProt Q9UBT2)
Test: SAE HTRF enzyme assay
Assay type: biochemical
In short: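 Enzyme reaction: 50 mM HEPES pH 7.5, 5 mM MgCl2, 250 μM GSH, 0.05% BSA, 0.5 μM ATP, 0.01 μM Ubc9-GST, 0.125 μM Sumo-Flag, 0.11 nM SAE; 105 min, 24° C. Stop/detect, 2 h, then HTRF. % inh or IC50.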

[1] = SAE inhibition at compound concentration 0.111 μM
[2] = SAE inhibition, class symbols, legend in nM

recombinant human SAE enzyme, sequence (Q9UBT2 whole entry): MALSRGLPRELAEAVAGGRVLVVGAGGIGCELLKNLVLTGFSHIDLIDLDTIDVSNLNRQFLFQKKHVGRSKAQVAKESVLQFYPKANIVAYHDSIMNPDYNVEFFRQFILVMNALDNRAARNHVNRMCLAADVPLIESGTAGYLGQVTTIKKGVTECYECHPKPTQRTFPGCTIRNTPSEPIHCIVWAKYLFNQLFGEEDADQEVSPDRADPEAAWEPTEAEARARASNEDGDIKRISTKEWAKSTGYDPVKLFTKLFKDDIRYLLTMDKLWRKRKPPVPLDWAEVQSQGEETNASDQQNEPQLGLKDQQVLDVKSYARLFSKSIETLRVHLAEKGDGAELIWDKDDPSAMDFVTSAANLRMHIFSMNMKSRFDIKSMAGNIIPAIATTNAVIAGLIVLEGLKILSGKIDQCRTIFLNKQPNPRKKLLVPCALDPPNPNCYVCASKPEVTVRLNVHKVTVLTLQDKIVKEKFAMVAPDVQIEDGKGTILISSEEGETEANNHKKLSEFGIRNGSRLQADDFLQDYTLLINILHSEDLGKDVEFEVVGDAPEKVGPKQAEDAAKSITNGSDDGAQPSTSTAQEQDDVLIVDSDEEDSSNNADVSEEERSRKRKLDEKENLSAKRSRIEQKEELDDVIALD
recombinant human SAE enzyme, sequence (Q9UBE0 whole entry partner): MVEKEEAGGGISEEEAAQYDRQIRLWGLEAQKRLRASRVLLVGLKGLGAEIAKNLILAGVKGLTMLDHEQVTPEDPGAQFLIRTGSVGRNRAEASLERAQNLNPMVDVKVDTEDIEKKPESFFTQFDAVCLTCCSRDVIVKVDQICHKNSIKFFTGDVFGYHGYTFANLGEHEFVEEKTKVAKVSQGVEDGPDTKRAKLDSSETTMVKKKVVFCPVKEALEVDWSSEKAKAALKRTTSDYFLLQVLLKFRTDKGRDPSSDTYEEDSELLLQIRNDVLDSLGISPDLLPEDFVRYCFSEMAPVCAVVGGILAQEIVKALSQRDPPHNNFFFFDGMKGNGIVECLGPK

Compound	Percent Inhibition [1] [%]	IC50 [2] [nM]	Percent Inhibition (Concentration 0.111 μM)	IC50 (class symbols A/B/C) [nM]
N#Cc1sc(C(=O)c2cncnc2N[C@@H]2C[C@H](COS(N)(=O)=O)[C@@H](O)C2)cc1[C@@H]1OCCc2ccccc21 (mixture of isomers) [I-324, [(1R,2S,4R)-4-{[5-({5-cyano-4-[(1R)-3,4-dihydro-1H-isochromen-1-yl]-2-thienyl}carbonyl)pyrimidin-4-yl]amino}-2-hydroxycyclopentyl]methyl sulfamate and [(1R,2S,4R)-4-{[5-({5-cyano-4-[(1S)-3,4-dihydro-1H-isochromen-1-yl]-2-thienyl}carbonyl)pyrimidin-4-yl]amino}-2-hydroxycyclopentyl]methyl sulfamate]	91	10 to 100		
NS(=O)(=O)OC[C@H]1C[C@@H](Nc2ncncc2C(=O)c2cc([C@@H]3OCC(F)(F)c4ccc(Cl)cc43)cs2)C[C@@H]1O (single isomer, unassigned) [I-289a, [(1R,2S,4R)-4-{[5-({4-[(1R)-7-chloro-4,4-difluoro-3,4-dihydro-1H-isochromen-1-yl]-2-thienyl}carbonyl)pyrimidin-4-yl]amino}-2-hydroxycyclopentyl]methyl sulfamate or [(1R,2S,4R)-4-{[5-({4-[(1S)-7-chloro-4,4-difluoro-3,4-dihydro-1H-isochromen-1-yl]-2-thienyl}carbonyl)pyrimidin-4-yl]amino}-2-hydroxycyclopentyl]methyl sulfamate]	16	100 to 1000		
NS(=O)(=O)OC[C@H]1C[C@@H](Nc2ncncc2C(=O)c2cc([C@@H]3NCc4ccc(Cl)cc43)c(Cl)s2)C[C@@H]1O (single isomer, unassigned) [I-262a, [(1R,2S,4R)-4-{[5-({5-chloro-4-[(1R)-6-chloro-2,3-dihydro-1H-isoindol-1-yl]-2-thienyl}carbonyl)pyrimidin-4-yl]amino}-2-hydroxycyclopentyl]methyl sulfamate or [(1R,2S,4R)-4-{[5-({5-chloro-4-[(1S)-6-chloro-2,3-dihydro-1H-isoindol-1-yl]-2-thienyl}carbonyl)pyrimidin-4-yl]amino}-2-hydroxycyclopentyl]methyl sulfamate]			98	< 10
CN[C@H](c1cccc(Cl)c1)c1csc(C(=O)c2cncnc2N[C@@H]2C[C@H](COS(N)(=O)=O)[C@@H](O)C2)c1 (single isomer, unassigned) [I-47a, [(1R,2S,4R)-4-{[5-({4-[(R)-(3-chlorophenyl)(methylamino)methyl]-2-thienyl}carbonyl)pyrimidin-4-yl]amino}-2-hydroxycyclopentyl]methyl sulfamate or [(1R,2S,4R)-4-{[5-({4-[(S)-(3-chlorophenyl)(methylamino)methyl]-2-thienyl}carbonyl)pyrimidin-4-yl]amino}-2-hydroxycyclopentyl]methyl sulfamate]			99	< 10
Cc1sc(C(=O)c2cncnc2N[C@@H]2C[C@H](COS(N)(=O)=O)[C@@H](O)C2)cc1[C@@H]1OCCn2c(C)cnc21 (mixture of isomers) [I-296, [(1R,2S,4R)-2-hydroxy-4-{[5-({5-methyl-4-[(8S)-3-methyl-5,6-dihydro-8H-imidazo[2,1-c][1,4]oxazin-8-yl]-2-thienyl}carbonyl)pyrimidin-4-yl]amino}cyclopentyl]methyl sulfamate and [(1R,2S,4R)-2-hydroxy-4-{[5-({5-methyl-4-[(8R)-3-methyl-5,6-dihydro-8H-imidazo[2,1-c][1,4]oxazin-8-yl]-2-thienyl}carbonyl)pyrimidin-4-yl]amino}cyclopentyl]methyl sulfamate]	98	< 10		
